# Assays:
# fat tissue = assay: qPCR biomarker analysis of fat tissue, in vivo; design: species or system Mice (C57BJ/6); settings: mouse fat tissue, SC injection twice a week over 3 weeks
# Method: (§1) Mice (8-10 weeks old males C57BJ/6 strain) were obtained from a commercial vendor Charles River Laboratories. The animal study protocols were approved by the Institutional Animal Care and Use Committee, at the Procter & Gamble Company. Mice were acclimated to the facility for 14 days prior to initiating the study. From arrival, mice were housed in solid-bottom shoebox styled cages within room temperature of 22±2° C. with ad libitum access to water and regular rodent chow diet on a 12 h light/dark cycle. Mice were single housed and offered bedding and various enrichment options. The bedding and nesting material allowed the mice to thermoregulate to their desired level of comfort. Body weights were recorded at the beginning of the study, on each dosing day prior to dosing, and final weights were recorded at the end of the study. Overall food consumption, fecal output, and body appearance were monitored during cage side clinical observations but were not scientifically measured or tracked. During the dosing period, the animals were observed several times per day (for example, before and during injection, immediately to 30-min post injection, a few hours after injection, and end of work day).
# Three groups of animals were treated with mirabegron (i.e. positive control) (n=4), placebo (n=2) and Formula III (n=6) on the left side while the right side received placebo in all three groups. The injection was performed using a 25-27-gauge ½-⅝″ length needle via a subcutaneous (SC) injection near or into the inguinal fat pad region of the lower abdomen. Dosing was done twice a week injections over 3 weeks. Necropsy was done at week 4. Test materials were administered at room temperature and in a neutral pH range. Three days after last dosing animals were euthanized with CO2 inhalation, inguinal fat pads were harvested, and tissues were processed for histology and biomarker analysis.
# The qPCR biomarker analysis was conducted from flash frozen fat tissue from mouse study described above. First, RNA was manually extracted with RNAdvance Tissue kit (Agencourt). RNA was extracted from flash frozen fat tissue according to manufactuer's directions. For example, 5 mm steel beads were placed in the freezer for approximately 15-20 minutes. Next, Qiagen Buffer RLT was cooled to 4° C. for 20 minutes and placed in a 96 well 1.5 mL tube rack for sample transfer. Isopropanol was added to Agencourt wash buffer. 100 mL aliquots of 70% ethanol in water were prepared. The RNA Tissue beads were allowed to warm to 22° C. (˜30 minutes), and then the beads were shaken vigorously and intermittently for at least 15-20 minutes. 1 stainless steel bead was added to a 2 mL round bottom tube stored on dry ice. The tissue sample was then transferred to the 2 mL round bottom tube.
# The tube rack was placed on wet ice. Then, the tubes were transferred from dry ice to the rack in wet ice and 350 μL of cold buffer RLT were added to the tubes. The beads were beaten at 30 Hz for 2 minutes. After bead beating, samples were centrifuged for 2 minutes. The supernatant was transferred into 96 well deep well isolation plate.
# 80 μL of RNATissue beads were combined with 320 μL of isopropanol to create a Bind Buffer. This solution was prepared fresh for each isolation with any unused solution discarded.
# 400 μL of Bind Buffer was added to the to RLT mixture and slowly mixed. The solution was incubated at room temperature for 10 minutes. Special care was taken to avoid the formation of bubbles while tip mixing.
# The mixture was placed on a magnet (96 well plate—Agencourt SPRIPlate) for 6-10 minutes. After the solution became clear, the supernatant was removed from each tube while the tubes remained on the magnet and the solution was discarded.
# The tubes were removed from the magnet and the pellets were washed with 800 μL of the Isopropanol Wash Buffer ten times. […]
# adipocyte = assay: In vivo browning study in lean mice: Fat % by image analysis of H&E stained tissue; design: species or system Mice (C57BJ/6)
# Method: as §1
# […] The injection was performed using a 25-27-gauge ½-⅝″ length needle via a subcutaneous (SC) injection near or into the inguinal fat pad region of the lower abdomen. Dosing was done twice a week injections over 3 weeks. Necropsy was done at week 4. […]
# Segments of adipocyte and inter-cellular regions in a stained image were identified by Python […] package. […] The threshold between adipocyte and inter-cellular regions in a converted image was detected by the Otsu filter function of the […]. The detected value was adjusted by multiplying 1.1.
# The ratio of adipocyte in an image was calculated from the pixel number of the segments—Adipocyte Pixel was divided by Total Pixel.
# The significance of the difference in Adipocyte Ratio between treatment and control groups was assessed by the Negative Binomial Generalized Linear Mixed-Effects Model using glmer.nb function of R lme4 package. […]
smiles,measurement,setting,value
CC(C)[C@@H]1CC[C@@H](C)C[C@H]1C(=O)NC[C@@H](NC(=O)[C@H](C)N)c1ccccc1 [Formula III],Average Fold vs Placebo: AdipoQ,fat tissue,4.7
same,Average Fold vs Placebo: Adrb3,fat tissue,18.3
same,Average Fold vs Placebo: Cidea,fat tissue,28.0
same,Average Fold vs Placebo: Cox7a1,fat tissue,5.7
same,Average Fold vs Placebo: Cox8b,fat tissue,19.0
same,Average Fold vs Placebo: Dio2,fat tissue,1.8
same,Average Fold vs Placebo: Elovl3,fat tissue,37.5
same,Average Fold vs Placebo: IL6,fat tissue,0.8
same,Average Fold vs Placebo: Ppargc1,fat tissue,3.0
same,Average Fold vs Placebo: Prdm16,fat tissue,3.5
same,Average Fold vs Placebo: Tfap2a,fat tissue,1.2
same,Average Fold vs Placebo: UCP1,fat tissue,73.2
same,Average Fat % (Adipocyte Pixel / Total Pixel),"adipocyte; mice, SC injection, Formula III one side and mirabegron other side, high and middle dosage merged, H&E images",90.81%
same,treatment effect of reducing the adipocyte ratio,"adipocyte; treatment vs control, p-value 0.0278, negative binomial mixed-effects model",statistically significant

# — patent publication US20200138764A1, “METHODS AND DEVICES FOR ACTIVATING ADIPOSE TISSUE” (The Procter & Gamble Company, priority 2018, published 2020)
